From ChEMBL document CHEMBL5038675, “Selective A3 Adenosine Receptor Antagonist Radioligand for Human and Rodent Species” (ACS Med Chem Lett, 2022)

Legend:
[1] = target: T1, Adenosine receptor A3 (Mus musculus, UniProt Q61618); type: cell-based, HEK293
T1 sequence (Q61618 whole entry): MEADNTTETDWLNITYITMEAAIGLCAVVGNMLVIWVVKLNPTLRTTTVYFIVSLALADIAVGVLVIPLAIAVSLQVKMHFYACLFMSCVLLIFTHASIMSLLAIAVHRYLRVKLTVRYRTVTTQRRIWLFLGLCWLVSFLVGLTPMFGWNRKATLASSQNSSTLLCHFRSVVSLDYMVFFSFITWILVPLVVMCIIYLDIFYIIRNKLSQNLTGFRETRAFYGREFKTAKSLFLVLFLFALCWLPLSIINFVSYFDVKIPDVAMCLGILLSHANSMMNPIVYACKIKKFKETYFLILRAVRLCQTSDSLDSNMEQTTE

[2] = target: T2, Adenosine receptor A1 (Homo sapiens, UniProt P30542); experiment: Displacement of [3H] DPCPX from human adenosine A1 receptor expressed in HEK293 cells incubated for 60 mins by radioligand binding assay; type: cell-based
T2 sequence (P30542 whole entry): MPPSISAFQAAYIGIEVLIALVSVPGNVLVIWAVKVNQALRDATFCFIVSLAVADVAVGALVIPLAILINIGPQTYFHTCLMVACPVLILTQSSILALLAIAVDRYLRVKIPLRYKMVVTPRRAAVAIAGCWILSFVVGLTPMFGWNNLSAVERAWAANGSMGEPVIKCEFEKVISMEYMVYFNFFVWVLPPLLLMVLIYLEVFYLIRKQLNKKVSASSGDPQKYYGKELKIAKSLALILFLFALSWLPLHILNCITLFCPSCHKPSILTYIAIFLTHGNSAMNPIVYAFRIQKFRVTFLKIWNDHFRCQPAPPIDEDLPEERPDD

[3] = target: T3, Adenosine receptor A2a (Homo sapiens, UniProt P29274); experiment: Displacement of [3H] ZM241385 from human adenosine A2A receptor expressed in HEK293 cells at 10 uM incubated for 60 mins by radioligand binding assay; type: cell-based
T3 sequence (P29274 whole entry): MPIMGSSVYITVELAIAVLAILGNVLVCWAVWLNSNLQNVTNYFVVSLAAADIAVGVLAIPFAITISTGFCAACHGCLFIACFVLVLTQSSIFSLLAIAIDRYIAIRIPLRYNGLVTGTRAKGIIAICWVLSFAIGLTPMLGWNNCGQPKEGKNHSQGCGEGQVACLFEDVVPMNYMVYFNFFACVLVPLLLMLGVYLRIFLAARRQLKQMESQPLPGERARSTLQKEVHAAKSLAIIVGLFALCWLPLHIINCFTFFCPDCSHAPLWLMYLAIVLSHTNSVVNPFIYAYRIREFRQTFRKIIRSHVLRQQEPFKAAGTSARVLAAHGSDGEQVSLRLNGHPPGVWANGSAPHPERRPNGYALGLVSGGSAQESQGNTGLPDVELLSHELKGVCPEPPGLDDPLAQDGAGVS

[4] = target: T4, Adenosine receptor A3 (Homo sapiens, UniProt P0DMS8); type: cell-based, HEK293
T4 sequence (P0DMS8 whole entry): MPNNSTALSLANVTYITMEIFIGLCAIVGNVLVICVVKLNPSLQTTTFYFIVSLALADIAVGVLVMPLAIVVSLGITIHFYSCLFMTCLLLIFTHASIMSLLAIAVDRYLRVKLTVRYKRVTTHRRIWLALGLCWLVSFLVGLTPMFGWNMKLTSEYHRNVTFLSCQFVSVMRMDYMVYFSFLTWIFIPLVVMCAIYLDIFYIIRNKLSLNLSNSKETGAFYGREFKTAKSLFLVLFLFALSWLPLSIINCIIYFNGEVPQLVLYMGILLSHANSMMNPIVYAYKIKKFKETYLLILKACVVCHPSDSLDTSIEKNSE

[5] = target: T1, Adenosine receptor A3; experiment: Binding affinity to mouse adenosine A3 receptor expressed in HEK293 cells measured by radioligand binding assay; type: cell-based
[6] = target: T5, Adenosine receptor A3 (Rattus norvegicus, UniProt P28647); experiment: Binding affinity to rat adenosine A3 receptor expressed in HEK293 cells measured by radioligand binding assay; type: cell-based
T5 sequence (P28647 whole entry): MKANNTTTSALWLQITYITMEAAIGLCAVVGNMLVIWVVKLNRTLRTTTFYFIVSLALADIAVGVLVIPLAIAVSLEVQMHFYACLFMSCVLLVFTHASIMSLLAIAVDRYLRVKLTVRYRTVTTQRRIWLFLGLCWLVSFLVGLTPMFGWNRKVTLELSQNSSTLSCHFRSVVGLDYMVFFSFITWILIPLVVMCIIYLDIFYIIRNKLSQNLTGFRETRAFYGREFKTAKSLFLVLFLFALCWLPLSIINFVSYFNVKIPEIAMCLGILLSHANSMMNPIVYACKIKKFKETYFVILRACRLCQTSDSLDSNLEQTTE

[7] = target: T3, Adenosine receptor A2a; experiment: Displacement of [3H] ZM241385 from human adenosine A2A receptor expressed in HEK293 cells incubated for 60 mins by radioligand binding assay; type: cell-based
[8] = target: T1, Adenosine receptor A3; experiment: Binding affinity to mouse adenosine A3 receptor measured by radioligand binding assay
[9] = target: T5, Adenosine receptor A3; experiment: Binding affinity to rat adenosine A3 receptor measured by radioligand binding assay
[10] = target: T6, Adenosine receptor A1 (Homo sapiens) (UniProt P30542); experiment: Displacement of [3H] DPCPX from human adenosine A1 receptor expressed in HEK293 cells at 10 uM incubated for 60 mins by radioligand binding assay; type: cell-based
T6 sequence (whole entry): T2 sequence (P30542 whole entry)

Ki [2] [nM]	Ki [4] [nM]	Ki [7] [nM]	Ki [8] [nM]	Ki [9] [nM]	SMILES	also measured
			> 10000	> 10000	CCCn1cc2c(nc(NC(=O)Nc3ccc(OC)cc3)n3nc(-c4ccco4)nc23)n1	
			6360	> 10000	CC[C@@H]1CN2C(=O)N(C)c3nc(-c4ccccc4)[nH]c3C2=N1	

More lines, now with the values behind:

SMILES	Ki [2] [nM]	Ki [4] [nM]	Ki [7] [nM]	Ki [8] [nM]	Ki [9] [nM]	also measured
COC(=O)/C=C/c1cc(C)cc(-c2nc(NC(=O)c3cccnc3)sc2-c2ccncc2)c1	1570	18.9				Ki [1]: 120 nM; inhibition [3]: 15%
[3H]c1cncc(C(=O)Nc2nc(-c3cc(C)cc(C)c3)c(-c3ccncc3)s2)c1						Kd [5]: 3.74 nM; Kd [6]: 2.8 nM
Cc1cc(F)cc(-c2nc(NC(=O)c3cccnc3)sc2-c2ccncc2)c1	78.7	69.2	3550			
Cc1cc(C)cc(-c2nc(NC(=O)c3cncc(Br)c3)sc2-c2ccncc2)c1		26.6	> 1000			inhibition [10]: 38%
